# Results: the supplement of paper PMC10307832
# Tests used:
# Experiment in all cases: relative viability (nuclei count vs DMSO), 5 days (fraction); higher = more cells survive
# A-427 = tested on: A-427
# Method in brief: (§1)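 Cells from lung cancer lines were seeded into 1536-well plates and, one day later, dosed by pin tool. Treatments were either a single drug or a fixed dose of an anchor drug with five library-drug doses (not always all listed) in √10 steps. After 5 days, nuclei were stained in a one-step fixation (final 0.05% Triton X-100, 1% formaldehyde, 1 ug/ml Hoechst) and counted on 4× images, and relative viability is the treated-to-vehicle nuclei ratio, as the median of duplicate plates.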
# COR-L 105 = tested on: COR-L 105
# Method in brief: as §1
# ChaGo-K-1 = tested on: ChaGo-K-1
# Method in brief: as §1
# EKVX = tested on: EKVX
# Method in brief: as §1
# EMC-BAC-2 = tested on: EMC-BAC-2
# Method in brief: as §1
# H3255 = tested on: H3255
# Method in brief: as §1
# HCC-366 = tested on: HCC-366
# Method in brief: as §1
# LK-2 = tested on: LK-2
# Method in brief: as §1
# LOU-NH91 = tested on: LOU-NH91
# Method in brief: as §1
# NCI-H1563 = tested on: NCI-H1563
# Method in brief: as §1
# NCI-H1666 = tested on: NCI-H1666
# Method in brief: as §1
# NCI-H1734 = tested on: NCI-H1734
# Method in brief: as §1
# NCI-H1755 = tested on: NCI-H1755
# Method in brief: as §1
# NCI-H1792 = tested on: NCI-H1792
# Method in brief: as §1
# NCI-H1944 = tested on: NCI-H1944
# Method in brief: as §1
# NCI-H1975 = tested on: NCI-H1975
# Method in brief: as §1
# NCI-H2170 = tested on: NCI-H2170
# Method in brief: as §1
# NCI-H23 = tested on: NCI-H23
# Method in brief: as §1
# NCI-H441 = tested on: NCI-H441
# Method in brief: as §1
# NCI-H520 = tested on: NCI-H520
# Method in brief: as §1
# NCI-H596 = tested on: NCI-H596
# Method in brief: as §1
# PC-3 [JPC-3] = tested on: PC-3 [JPC-3]
# Method in brief: as §1
# SK-MES-1 = tested on: SK-MES-1
# Method in brief: as §1
smiles,measurement,setting,value
COc1cc(N2CCC(C(N)=O)CC2)ccc1Nc1nc(N)c(Cl)c(Nc2ccccc2S(=O)(=O)C(C)C)n1 [HG-5-88-01] + CS(=O)(=O)N1CCN(Cc2cc3nc(-c4cccc5[nH]ncc45)nc(N4CCOCC4)c3s2)CC1 [Pictilisib] (partner 1 µM),relative viability,A-427; first compound 0.04 µM,0.716
same,relative viability,A-427; first compound 0.1265 µM,0.812
same,relative viability,A-427; first compound 0.4 µM,0.706
same,relative viability,A-427; first compound 1.265 µM,0.914
same,relative viability,A-427; first compound 4 µM,0.442
same,relative viability,COR-L 105; first compound 0.04 µM,0.348
same,relative viability,COR-L 105; first compound 0.1265 µM,0.537
same,relative viability,COR-L 105; first compound 0.4 µM,0.336
same,relative viability,COR-L 105; first compound 1.265 µM,0.309
same,relative viability,COR-L 105; first compound 4 µM,0.342
same,relative viability,ChaGo-K-1; first compound 0.04 µM,0.794
same,relative viability,ChaGo-K-1; first compound 0.1265 µM,0.785
same,relative viability,ChaGo-K-1; first compound 0.4 µM,0.679
same,relative viability,ChaGo-K-1; first compound 1.265 µM,0.863
same,relative viability,ChaGo-K-1; first compound 4 µM,0.556
same,relative viability,EKVX; first compound 0.04 µM,0.444
same,relative viability,EKVX; first compound 0.1265 µM,0.426
same,relative viability,EKVX; first compound 0.4 µM,0.372
same,relative viability,EKVX; first compound 4 µM,0.355
same,relative viability,EMC-BAC-2; first compound 0.04 µM,0.531
same,relative viability,EMC-BAC-2; first compound 0.1265 µM,0.509
same,relative viability,EMC-BAC-2; first compound 0.4 µM,0.495
same,relative viability,EMC-BAC-2; first compound 1.265 µM,0.554
same,relative viability,EMC-BAC-2; first compound 4 µM,0.505
same,relative viability,H3255; first compound 0.04 µM,0.479
same,relative viability,H3255; first compound 0.1265 µM,0.484
same,relative viability,H3255; first compound 0.4 µM,0.449
same,relative viability,H3255; first compound 4 µM,0.317
same,relative viability,HCC-366; first compound 0.04 µM,0.101
same,relative viability,HCC-366; first compound 0.1265 µM,0.16
same,relative viability,HCC-366; first compound 0.4 µM,0.0782
same,relative viability,HCC-366; first compound 1.265 µM,0.157
same,relative viability,HCC-366; first compound 4 µM,0.212
same,relative viability,LK-2; first compound 0.04 µM,0.632
same,relative viability,LK-2; first compound 0.1265 µM,0.522
same,relative viability,LK-2; first compound 0.4 µM,0.546
same,relative viability,LK-2; first compound 1.265 µM,0.386
same,relative viability,LK-2; first compound 4 µM,0.614
same,relative viability,LOU-NH91; first compound 0.04 µM,0.495
same,relative viability,LOU-NH91; first compound 0.1265 µM,0.514
same,relative viability,LOU-NH91; first compound 0.4 µM,0.513
same,relative viability,LOU-NH91; first compound 1.265 µM,0.482
same,relative viability,LOU-NH91; first compound 4 µM,0.401
same,relative viability,NCI-H1563; first compound 0.04 µM,0.66
same,relative viability,NCI-H1563; first compound 0.1265 µM,0.671
same,relative viability,NCI-H1563; first compound 0.4 µM,0.638
same,relative viability,NCI-H1563; first compound 1.265 µM,0.651
same,relative viability,NCI-H1563; first compound 4 µM,0.634
same,relative viability,NCI-H1666; first compound 0.04 µM,0.503
same,relative viability,NCI-H1666; first compound 0.1265 µM,0.43
same,relative viability,NCI-H1666; first compound 0.4 µM,0.467
same,relative viability,NCI-H1666; first compound 1.265 µM,0.476
same,relative viability,NCI-H1666; first compound 4 µM,0.34
same,relative viability,NCI-H1734; first compound 0.04 µM,0.405
same,relative viability,NCI-H1734; first compound 0.1265 µM,0.423
same,relative viability,NCI-H1734; first compound 0.4 µM,0.411
same,relative viability,NCI-H1734; first compound 1.265 µM,0.358
same,relative viability,NCI-H1734; first compound 4 µM,0.476
same,relative viability,NCI-H1755; first compound 0.1265 µM,0.508
same,relative viability,NCI-H1755; first compound 0.4 µM,0.438
same,relative viability,NCI-H1755; first compound 1.265 µM,0.53
same,relative viability,NCI-H1755; first compound 4 µM,0.399
same,relative viability,NCI-H1792; first compound 0.04 µM,0.372
same,relative viability,NCI-H1792; first compound 0.1265 µM,0.272
same,relative viability,NCI-H1792; first compound 0.4 µM,0.313
same,relative viability,NCI-H1792; first compound 1.265 µM,0.253
same,relative viability,NCI-H1792; first compound 4 µM,0.297
same,relative viability,NCI-H1944; first compound 0.04 µM,0.319
same,relative viability,NCI-H1944; first compound 0.1265 µM,0.341
same,relative viability,NCI-H1944; first compound 0.4 µM,0.336
same,relative viability,NCI-H1944; first compound 1.265 µM,0.334
same,relative viability,NCI-H1944; first compound 4 µM,0.352
same,relative viability,NCI-H1975; first compound 0.04 µM,0.32
same,relative viability,NCI-H1975; first compound 0.1265 µM,0.277
same,relative viability,NCI-H1975; first compound 0.4 µM,0.244
same,relative viability,NCI-H1975; first compound 1.265 µM,0.191
same,relative viability,NCI-H1975; first compound 4 µM,0.17
same,relative viability,NCI-H2170; first compound 0.04 µM,0.269
same,relative viability,NCI-H2170; first compound 0.1265 µM,0.33
same,relative viability,NCI-H2170; first compound 0.4 µM,0.28
same,relative viability,NCI-H2170; first compound 1.265 µM,0.26
same,relative viability,NCI-H2170; first compound 4 µM,0.261
same,relative viability,NCI-H23; first compound 0.04 µM,0.382
same,relative viability,NCI-H23; first compound 0.1265 µM,0.572
same,relative viability,NCI-H23; first compound 0.4 µM,0.469
same,relative viability,NCI-H23; first compound 1.265 µM,0.533
same,relative viability,NCI-H23; first compound 4 µM,0.35
same,relative viability,NCI-H441; first compound 0.04 µM,0.435
same,relative viability,NCI-H441; first compound 0.1265 µM,0.409
same,relative viability,NCI-H441; first compound 0.4 µM,0.494
same,relative viability,NCI-H441; first compound 1.265 µM,0.352
same,relative viability,NCI-H441; first compound 4 µM,0.536
same,relative viability,NCI-H520; first compound 0.04 µM,0.366
same,relative viability,NCI-H520; first compound 0.1265 µM,0.273
same,relative viability,NCI-H520; first compound 0.4 µM,0.235
same,relative viability,NCI-H520; first compound 1.265 µM,0.299
same,relative viability,NCI-H520; first compound 4 µM,0.36
same,relative viability,NCI-H596; first compound 0.04 µM,0.447
same,relative viability,NCI-H596; first compound 0.1265 µM,0.42
same,relative viability,NCI-H596; first compound 0.4 µM,0.382
same,relative viability,NCI-H596; first compound 1.265 µM,0.414
same,relative viability,NCI-H596; first compound 4 µM,0.312
same,relative viability,PC-3 [JPC-3]; first compound 0.04 µM,0.69
same,relative viability,PC-3 [JPC-3]; first compound 0.1265 µM,0.702
same,relative viability,PC-3 [JPC-3]; first compound 0.4 µM,0.636
same,relative viability,PC-3 [JPC-3]; first compound 1.265 µM,0.494
same,relative viability,PC-3 [JPC-3]; first compound 4 µM,0.266
same,relative viability,SK-MES-1; first compound 0.04 µM,0.37
same,relative viability,SK-MES-1; first compound 0.1265 µM,0.373
same,relative viability,SK-MES-1; first compound 0.4 µM,0.354
same,relative viability,SK-MES-1; first compound 1.265 µM,0.282
same,relative viability,SK-MES-1; first compound 4 µM,0.299
